The test system of the test is adult mongrel dogs. Kind of test: Renal vasodilating activity in anesthetized dogs. The test is classed as in vivo, mongrel dog. The conditions noted are these: for change in vivo at 1.2 mg/kg / change in vivo at 6.2 mg/kg: Canis lupus familiaris; for MABP: percent change in mean arterial blood pressure / RBF: percent change in renal blood flow / RVR: percent change in renal vascular resistance: 1.2 mg/kg. The protocol:
Goldberg et al., J. Pharmacol. Exp. Ther., 163, 188 (1968), performed an investigation of the structural requirements for dopamine-like renal vasodilation of phenethylamines and apomorphine. The following procedure is a variation of the assay described in that report.
Adult mongrel dogs were anesthetized and surgically prepared for electromagnetic measurement of renal artery blood flow. A carotid artery was cannulated for measuring arterial blood pressure and drugs were administered intravenously or intraarterially (via the renal artery). Heart rate was monitored with a cardiotachometer. Renal vascular resistance was calculated as the ratio of mean arterial blood pressure to renal artery blood flow. Dopamine was infused intravenously at 3 μg/kg/min for ten minutes (at an infusion rate of about 1 ml/min) to determine responsiveness of each dog to renal dopamine receptor stimulation. Cumulative dose-response data were obtained by infusing a compound of this invention at progressively increasing (usually three-fold) infusion rates, each dose being infused for five minutes. The maximum percent change from pre-drug control in renal artery blood flow (or in renal vascular resistance) was determined for each infusion dose.
RBF, RVR, MABP, and HR values are percent changes in renal blood flow, renal vascular resistance, mean arterial blood pressure, and heart rate, respectively, relative to control values.

The mark [1] stands for this setting: read-out: HR: percent change in heart rate, dose 1.2 mpk, relative to controls.
Setting [2] is: read-out: MABP: percent change in mean arterial blood pressure, dose 1.2 mpk, relative to controls.
Where [3] appears, read: read-out: RBF: percent change in renal blood flow, dose 1.2 mpk, relative to controls.
The mark [4] stands for this setting: read-out: RVR: percent change in renal vascular resistance, dose 1.2 mpk, relative to controls.
Where [5] appears, read: dose 1.2 mpk, relative to controls, read-out: HR: percent change in heart rate.
Where [6] appears, read: dose 1.2 mpk, relative to controls, read-out: MABP: percent change in mean arterial blood pressure.
Where [7] appears, read: dose 1.2 mpk, relative to controls, read-out: RBF: percent change in renal blood flow.
The mark [8] stands for this setting: dose 1.2 mpk, relative to controls, read-out: RVR: percent change in renal vascular resistance.
The mark [9] stands for this setting: dose 6.2 mpk, relative to controls, read-out: HR: percent change in heart rate.
Setting [10] is: dose 6.2 mpk, relative to controls, read-out: MABP: percent change in mean arterial blood pressure.
Where [11] appears, read: dose 6.2 mpk, relative to controls, read-out: RBF: percent change in renal blood flow.
[12] abbreviates: dose 6.2 mpk, relative to controls, read-out: RVR: percent change in renal vascular resistance.
Setting [13] is: dose 1.2 mpk, relative to controls.
Where [14] appears, read: read-out: HR: percent change in heart rate, dose 6.2 mpk, relative to controls.
The mark [15] stands for this setting: read-out: MABP: percent change in mean arterial blood pressure, dose 6.2 mpk, relative to controls.
The mark [16] stands for this setting: read-out: RBF: percent change in renal blood flow, dose 6.2 mpk, relative to controls.
Where [17] appears, read: read-out: RVR: percent change in renal vascular resistance, dose 6.2 mpk, relative to controls.

Read-outs that look alike come from different tables or passages of the source.

With `CCCCNC(=O)Nc1c(OC(=O)N(c2ccccc2)c2ccccc2)nc(C)c2cc(OC)c(OC)cc12` [Cmpd 57], the change in vivo at 1.2 mg/kg under setting [1] came out at 7%, the change in vivo at 1.2 mg/kg under setting [2] was 4%, the change in vivo at 1.2 mg/kg under setting [3] was 28% and the change in vivo at 1.2 mg/kg under setting [4] was -18%.
`CCN(CC)C(=O)Oc1nc(C)c2cc(OC)c(OC)cc2c1NC(N)=O` [Cmpd 47, 3-Diethylcarbamyloxy-6,7-dimethoxy-1-methyl-4-ureidoisoquinoline]: the change in vivo at 1.2 mg/kg is -3% under setting [1], 11% under setting [2], 17% under setting [3] and -4% under setting [4].
The matching figures for `C=CCNC(=O)Nc1c(OC(=O)N(CC)CC)nc(C)c2cc(OC)c(OC)cc12` [Cmpd 50]: -2%, 0%, 20% and -16%.
The corresponding values for `CCCCNC(=O)Nc1c(OC(=O)N2CCCC2)nc(C)c2cc(OC)c(OC)cc12` [Cmpd 55] are 2%, -4%, 14% and -14%.
Take `C=CCNC(=O)N(C(=O)NCC=C)c1c(OC(=O)N(CC)CC)nc(C)c2cc(OC)c(OC)cc12` [Cmpd 49]: the change in vivo at 1.2 mg/kg under setting [5] is -6%, the change in vivo at 1.2 mg/kg under setting [6] stood at 2%, the change in vivo at 1.2 mg/kg under setting [7] amounted to 14% and the change in vivo at 1.2 mg/kg under setting [8] is -8%.
For `CCCCNC(=O)Nc1c(OC(=O)N(C(C)C)C(C)C)nc(C)c2cc(OC)c(OC)cc12` [Cmpd 61], the change in vivo at 1.2 mg/kg reads like this: under setting [1], 11%; under setting [2], -1%; under setting [3], 47%; under setting [4], -32%.
In the case of `CCCCNC(=O)Nc1c(OS(=O)(=O)N(C)C)nc(C)c2cc(OC)c(OC)cc12` [Cmpd 64], the change in vivo at 1.2 mg/kg was 0% under setting [5], 4% under setting [6], 15% under setting [7] and -9% under setting [8].
Turning to `C=CCNC(=O)Nc1c(OC(=O)N2CCN(C(=O)OC(C)(C)C)CC2)nc(C)c2cc(OC)c(OC)cc12` [Cmpd 75], the change in vivo at 1.2 mg/kg was 12% under setting [1], 9% under setting [2], 27% under setting [3] and -15% under setting [4].
For the compound `CCOc1cc2c(C)nc(OS(C)(=O)=O)c([N+](=O)[O-])c2cc1OC` [Cmpd 6], the change in vivo at 6.2 mg/kg under setting [9] was -10%, the change in vivo at 6.2 mg/kg under setting [10] was -2%, the change in vivo at 6.2 mg/kg under setting [11] amounted to 38% and the change in vivo at 6.2 mg/kg under setting [12] was -28%.
On to `C=CCNC(=O)Nc1c(OC(=O)N(C)C)nc(C)c2cc(OC)c(OC)cc12` [Cmpd 67], for which the change in vivo at 1.2 mg/kg under setting [1] was determined as 0%. Further, under setting [13], the “MABP: percent change in mean arterial blood pressure” value is given as “+7 percent change”, the “RBF: percent change in renal blood flow” value is reported as “+50 percent change” and the “RVR: percent change in renal vascular resistance” value is given as -28 percent change.
For `CCN(CC)C(=O)Oc1nc(C)c2cc(OC)c(OC)cc2c1NC(=O)Nc1ccc(OC)cc1` [Cmpd 51], the change in vivo at 1.2 mg/kg by setting is: under setting [5], 25%; under setting [6], -6%; under setting [7], 17%; under setting [8], -20%.
With `COc1cc2c(C)nc(OCOC(=O)C(C)(C)C)c([N+](=O)[O-])c2cc1OC` [Cmpd 77], the change in vivo at 6.2 mg/kg is, setting by setting: under setting [9], 5%; under setting [10], -3%; under setting [11], 7%; under setting [12], -8%.
`C=CCNC(=O)Nc1c(OC(=O)N(C)C)nc(C)c2cc(OC)c(OC)cc12` [Cmpd 40]: under setting [13], the “MABP: percent change in mean arterial blood pressure” value is -1 percent change, the “RBF: percent change in renal blood flow” value is reported as “+9 percent change” and the “RVR: percent change in renal vascular resistance” value was -9 percent change.
As for `COc1cc2c(C)nc(OC(C)=O)c(N(C(C)=O)C(C)=O)c2cc1OC` [Cmpd 17, 4-N,N-Diacetamido-3-acetoxy-6,7-dimethoxy-1-methylisoquinoline], the change in vivo at 6.2 mg/kg under setting [9] was -12%, the change in vivo at 6.2 mg/kg under setting [10] was 13%, the change in vivo at 6.2 mg/kg under setting [11] amounted to 63% and the change in vivo at 6.2 mg/kg under setting [12] was -24%.
The matching figures for `CCOc1cc2c(C)nc(OC(=O)C(C)C)c([N+](=O)[O-])c2cc1OC` [Cmpd 5]: 36%, -10%, 42% and -36%.
On to `COc1cc2c(C)nc(OC(=O)c3ccc(Cl)cc3)c([N+](=O)[O-])c2cc1OC` [Cmpd 15], for which the change in vivo at 6.2 mg/kg is 3% under setting [9], -1% under setting [10], 15% under setting [11] and -14% under setting [12].
Take `C=CCNC(=O)Nc1c(OC(=O)N2CCCC2)nc(C)c2cc(OC)c(OC)cc12` [Cmpd 59]: the change in vivo at 1.2 mg/kg was 2% under setting [1], 1% under setting [2], 23% under setting [3] and -16% under setting [4].
Take `CCCCNC(=O)Nc1c(OC(=O)N2CCN(C(=O)OC(C)(C)C)CC2)nc(C)c2cc(OC)c(OC)cc12` [Cmpd 76]: the change in vivo at 1.2 mg/kg by setting is: under setting [1], -9%; under setting [2], -2%; under setting [3], 23%; under setting [4], -22%.
For the compound `CCCCNC(=O)Nc1c(OC(=O)N2CCNCC2)nc(C)c2cc(OC)c(OC)cc12` [Cmpd 80], the change in vivo at 1.2 mg/kg under setting [1] stood at 2%, the change in vivo at 1.2 mg/kg under setting [2] was determined as 0%, the change in vivo at 1.2 mg/kg under setting [3] stood at 25% and the change in vivo at 1.2 mg/kg under setting [4] is -16%.
Turning to `COc1cc2c(C)nc(OC(=O)N3CCCC3)c([N+](=O)[O-])c2cc1OC` [Cmpd 52], the change in vivo at 6.2 mg/kg by setting is: under setting [14], 0%; under setting [15], -15%; under setting [16], 41%; under setting [17], -37%.
With `C=CCNC(=O)Nc1c(OC(=O)N(c2ccccc2)c2ccccc2)nc(C)c2cc(OC)c(OC)cc12` [Cmpd 60], the change in vivo at 1.2 mg/kg was 8% under setting [1], 4% under setting [2], 27% under setting [3] and -17% under setting [4].
With `CCCCCC(=O)Nc1c(OC(=O)N(CC)CC)nc(C)c2cc(OC)c(OC)cc12` [Cmpd 81], the change in vivo at 6.2 mg/kg is -8% under setting [9], 9% under setting [10], 39% under setting [11] and -21% under setting [12].
As to `CCOc1cc2c([N+](=O)[O-])c(OC(=O)N(C)C)nc(C)c2cc1OC` [Cmpd 24], the change in vivo at 6.2 mg/kg is 53% under setting [14], -12% under setting [15], 22% under setting [16] and -28% under setting [17].
For the compound `C=CCNC(=O)Nc1c(OS(=O)(=O)N(C)C)nc(C)c2cc(OC)c(OC)cc12` [Cmpd 65], the change in vivo at 1.2 mg/kg was -7% under setting [5], -1% under setting [6], 25% under setting [7] and -22% under setting [8].
`CCCCNC(=O)Nc1c(OC(=O)N(CC)CC)nc(C)c2cc(OCC)c(OC)cc12` [Cmpd 45]: the change in vivo at 1.2 mg/kg runs as follows: under setting [1], 11%; under setting [2], 12%; under setting [3], 15%; under setting [4], -2%.

The values above are taken from patent US4880817A, “O-functionalized derivatives of substituted isoquinolin-3-ols having cardiotonic and/or phosphodiesterase fraction III inhibiting properties and/or renal vasodilating properties” (Ortho Pharmaceutical Corporation, priority 1987, dated 1989).
